Assay results from US10681909B2, “Herbicidal triazoles” (FMC Corporation, priority 2014, dated 2020).

Legend:
ragweed = test: Test A postemergence; assay type: in vivo, Ambrosia elatior; conditions: 0 to 100 scale (0 no effect, 100 complete control), approx. 10 d
Method in brief: (§1)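 Weed and crop species in loam–sand blend sprayed preemergence on soil or postemergence at 2–10 cm, one- to two-leaf stage, with chemicals in surfactant-containing solvent. Injury rated visually after ~10 d in greenhouse versus untreated controls on a 0–100 scale (100 = complete control).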

ryegrass, Italian = test: Test A postemergence; assay type: in vivo, Lolium multiflorum; conditions: 0 to 100 scale (0 no effect, 100 complete control), approx. 10 d
Method in brief: as §1

blackgrass = test: Test A postemergence; assay type: in vivo, Alopecurus myosuroides; conditions: 0 to 100 scale (0 no effect, 100 complete control), approx. 10 d
Method in brief: as §1

bluegrass = test: Test D preemergence; assay type: in vivo, Poa annua; conditions: for Plant response rating (0 to 100), Bluegrass: 16 g ai/ha, 0 is no effect, 100 is complete control; for Plant response rating: Bluegrass: scale 0 to 100
Description: (§2) Seeds of plant species selected from bluegrass (annual bluegrass, Poa annua), blackgrass (Alopecurus myosuroides), canarygrass (Phalaris minor), chickweed (common chickweed, Stellaria media), galium (catchweed bedstraw, Galium aparine), bromegrass, down (downy bromegrass, Bromus tectorum), Russian thistle (Salsola kali), field poppy (Papaver rhoeas), field violet (Viola arvensis), foxtail, green (green foxtail, Setaria viridis), deadnettle (henbit deadnettle, Lamium amplexicaule), ryegrass, Ital. (Italian ryegrass, Lolium multiflorum), kochia (Kochia scoparia), lambsquarters (Chenopodium album), oilseed rape (Brassica napus), pigweed (Amaranthus retroflexus), chamomile (scentless chamomile, Matricaria inodora), speedwell (bird's-eye speedwell, Veronica persica), barley, spring (spring barley, Hordeum vulgare), wheat, spring (spring wheat, Triticum aestivum), buckwheat, wild (wild buckwheat, Polygonum convolvulus), wild mustard (Sinapis arvensis), oat, wild (wild oat, Avena fatua), radish, wild (wild radish, Raphanus raphanistrum), […]), barley, winter (winter barley, Hordeum vulgare), and wheat, winter (winter wheat, Triticum aestivum) were planted into a silt loam soil and treated preemergence with test chemicals formulated in a non-phytotoxic solvent mixture which included a surfactant. At the same time, these species were planted in pots containing Sunshine Redi-Earth® planting medium comprising spaghnum peat moss, vermiculite, starter nutrients and dolomitic limestone and treated with postemergence applications of the test chemicals formulated in the same manner. Plants ranged in height from 2 to 18 cm (1- to 4-leaf stage). Treated plants and controls were maintained in a controlled growth environment for 14 to 21 d after which time all species were compared to controls and visually evaluated. […] A dash (-) response means no test result.

canarygrass = test: Test D preemergence; assay type: in vivo, Phalaris minor; conditions: for Plant response rating (0 to 100), Canarygrass: 16 g ai/ha, 0 is no effect, 100 is complete control; for Plant response rating: Canarygrass: scale 0 to 100
Description: as §2

Russian thistle = test: Test D preemergence; assay type: in vivo, Salsola kali; conditions: for Plant response rating (0 to 100), Russian Thistle: 16 g ai/ha, 0 is no effect, 100 is complete control; for Plant response rating: Russian Thistle: scale 0 to 100
Description: as §2

field poppy = test: Test D preemergence; assay type: in vivo, Papaver rhoeas; conditions: for Plant response rating (0 to 100), Field Poppy: 16 g ai/ha, 0 is no effect, 100 is complete control; for Plant response rating: Field Poppy: scale 0 to 100
Description: as §2

deadnettle = test: Test D postemergence; assay type: in vivo, Lamium amplexicaule; conditions: scale 0 to 100
Description: as §2

barley, spring = test: Test D postemergence; assay type: in vivo, Hordeum vulgare; conditions: scale 0 to 100
Description: as §2

barley, winter = test: Test D postemergence; assay type: in vivo, Hordeum vulgare; conditions: scale 0 to 100
Description: as §2

windgrass = test: Test D postemergence; assay type: in vivo, Apera spica-venti; conditions: scale 0 to 100
Description: as §2

For `CCOc1nc(-c2ccc(C(F)(F)F)cc2)nn1Cc1ccnc(C(F)(F)F)c1` [Compound 35, 4-[[5-ethoxy-3-[4-(trifluoromethyl)phenyl]-1H-1,2,4-triazole-1-yl]methyl]-2-(trifluoromethyl)pyridine], the “Plant response rating, Ragweed” value (ragweed; 31 g ai/ha) was 20, the “Plant response rating, Ragweed” value (ragweed; 125 g ai/ha) was 60 and the “Plant response rating, Ryegrass, Italian” value (ryegrass, Italian; 31 g ai/ha) was 30. For the same compound, the “Plant response rating, Ryegrass, Italian” value (ryegrass, Italian; 125 g ai/ha) was 60, the “Plant response rating, Blackgrass” value (blackgrass; 31 g ai/ha) was 30 and the “Plant response rating, Blackgrass” value (blackgrass; 125 g ai/ha) was 50. The “Plant response rating (0 to 100), Bluegrass” value (bluegrass) was 70, the “Plant response rating: Bluegrass” value (bluegrass; 31 g ai/ha) was 80 and the “Plant response rating: Bluegrass” value (bluegrass; 62 g ai/ha) was 95. For the same compound, the “Plant response rating: Bluegrass” value (bluegrass; 125 g ai/ha) was 100, the “Plant response rating (0 to 100), Canarygrass” value (canarygrass) was 45 and the “Plant response rating: Canarygrass” value (canarygrass; 31 g ai/ha) was 95. For the same compound, the “Plant response rating: Canarygrass” value (canarygrass; 62 g ai/ha) was 100, the “Plant response rating: Canarygrass” value (canarygrass; 125 g ai/ha) was 100 and the “Plant response rating (0 to 100), Russian Thistle” value (Russian thistle) was 70. The “Plant response rating: Russian Thistle” value (Russian thistle; 62 g ai/ha) was 80, the “Plant response rating: Russian Thistle” value (Russian thistle; 125 g ai/ha) was 85 and the “Plant response rating (0 to 100), Field Poppy” value (field poppy) was 100. For the same compound, the “Plant response rating: Field Poppy” value (field poppy; 62 g ai/ha) was 100, the “Plant response rating: Field Poppy” value (field poppy; 125 g ai/ha) was 100 and the “Plant response rating: Deadnettle” value (deadnettle; 16 g ai/ha) was 55. The “Plant response rating: Deadnettle” value (deadnettle; 31 g ai/ha) was 65, the “Plant response rating: Deadnettle” value (deadnettle; 62 g ai/ha) was 75 and the “Plant response rating: Deadnettle” value (deadnettle; 125 g ai/ha) was 90. The “Plant response rating: Barley, Spring” value (barley, spring; 16 g ai/ha) was 30, the “Plant response rating: Barley, Spring” value (barley, spring; 31 g ai/ha) was 40 and the “Plant response rating: Barley, Spring” value (barley, spring; 62 g ai/ha) was 40. The “Plant response rating: Barley, Spring” value (barley, spring; 125 g ai/ha) was 50, the “Plant response rating: Barley, Winter” value (barley, winter; 16 g ai/ha) was 25 and the “Plant response rating: Barley, Winter” value (barley, winter; 31 g ai/ha) was 40. For the same compound, the “Plant response rating: Barley, Winter” value (barley, winter; 62 g ai/ha) was 40, the “Plant response rating: Barley, Winter” value (barley, winter; 125 g ai/ha) was 50 and the “Plant response rating: Windgrass” value (windgrass; 16 g ai/ha) was 55. For the same compound, the “Plant response rating: Windgrass” value (windgrass; 31 g ai/ha) was 75, the “Plant response rating: Windgrass” value (windgrass; 62 g ai/ha) was 80 and the “Plant response rating: Windgrass” value (windgrass; 125 g ai/ha) was 90.
For `FC(F)(F)COc1nc(-c2ccc(Cl)cc2)nn1Cc1ccnc(C(F)(F)F)c1` [Compound 31], the “Plant response rating, Ragweed” value (ragweed; 125 g ai/ha) was 70, the “Plant response rating, Ragweed” value (ragweed; 500 g ai/ha) was 80 and the “Plant response rating, Ryegrass, Italian” value (ryegrass, Italian; 125 g ai/ha) was 50. The “Plant response rating, Ryegrass, Italian” value (ryegrass, Italian; 500 g ai/ha) was 80, the “Plant response rating, Blackgrass” value (blackgrass; 125 g ai/ha) was 50 and the “Plant response rating, Blackgrass” value (blackgrass; 500 g ai/ha) was 80. The “Plant response rating (0 to 100), Bluegrass” value (bluegrass) was 55, the “Plant response rating: Bluegrass” value (bluegrass; 31 g ai/ha) was 65 and the “Plant response rating: Bluegrass” value (bluegrass; 62 g ai/ha) was 95. The “Plant response rating: Bluegrass” value (bluegrass; 125 g ai/ha) was 100, the “Plant response rating (0 to 100), Canarygrass” value (canarygrass) was 50 and the “Plant response rating: Canarygrass” value (canarygrass; 31 g ai/ha) was 85. The “Plant response rating: Canarygrass” value (canarygrass; 62 g ai/ha) was 90, the “Plant response rating: Canarygrass” value (canarygrass; 125 g ai/ha) was 100 and the “Plant response rating (0 to 100), Russian Thistle” value (Russian thistle) was 70. The “Plant response rating: Russian Thistle” value (Russian thistle; 62 g ai/ha) was 85, the “Plant response rating: Russian Thistle” value (Russian thistle; 125 g ai/ha) was 90 and the “Plant response rating (0 to 100), Field Poppy” value (field poppy) was 95. The “Plant response rating: Field Poppy” value (field poppy; 62 g ai/ha) was 100, the “Plant response rating: Field Poppy” value (field poppy; 125 g ai/ha) was 100 and the “Plant response rating: Deadnettle” value (deadnettle; 16 g ai/ha) was 75. For the same compound, the “Plant response rating: Deadnettle” value (deadnettle; 31 g ai/ha) was 75, the “Plant response rating: Deadnettle” value (deadnettle; 62 g ai/ha) was 80 and the “Plant response rating: Deadnettle” value (deadnettle; 125 g ai/ha) was 95. The “Plant response rating: Barley, Spring” value (barley, spring; 16 g ai/ha) was 35, the “Plant response rating: Barley, Spring” value (barley, spring; 31 g ai/ha) was 45 and the “Plant response rating: Barley, Spring” value (barley, spring; 62 g ai/ha) was 45. The “Plant response rating: Barley, Spring” value (barley, spring; 125 g ai/ha) was 50, the “Plant response rating: Barley, Winter” value (barley, winter; 16 g ai/ha) was 25 and the “Plant response rating: Barley, Winter” value (barley, winter; 31 g ai/ha) was 35. For the same compound, the “Plant response rating: Barley, Winter” value (barley, winter; 62 g ai/ha) was 40, the “Plant response rating: Barley, Winter” value (barley, winter; 125 g ai/ha) was 50 and the “Plant response rating: Windgrass” value (windgrass; 16 g ai/ha) was 60. The “Plant response rating: Windgrass” value (windgrass; 31 g ai/ha) was 70, the “Plant response rating: Windgrass” value (windgrass; 62 g ai/ha) was 75 and the “Plant response rating: Windgrass” value (windgrass; 125 g ai/ha) was 80.
